Among the data in patent US7884117B2, “Carbonylamino pyrrolopyrazoles, potent kinase inhibitors” (Pfizer Inc., priority 2005, dated 2011) are inhibition and Ki values, retold here.

pKi: −log10 of the molar value.

T1 sequence (O96013 321-572 limits assumed): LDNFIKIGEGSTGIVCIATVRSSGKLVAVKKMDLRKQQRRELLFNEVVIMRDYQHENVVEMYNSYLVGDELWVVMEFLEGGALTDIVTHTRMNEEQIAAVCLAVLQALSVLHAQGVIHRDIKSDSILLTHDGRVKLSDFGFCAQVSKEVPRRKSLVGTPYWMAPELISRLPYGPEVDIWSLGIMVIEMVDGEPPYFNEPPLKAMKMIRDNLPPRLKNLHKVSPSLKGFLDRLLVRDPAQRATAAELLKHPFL

One assay has as its target T1, PAK4 Kinase domain (PAK4 KD) (Homo sapiens, UniProt O96013).
T1 construct: Cloning, expression, and purification of recombinant PAK4 Kinase domain (PAK4 KD); His tag (pET28a(+)/pET24a(+), Ni-NTA purification) (N, cleaved yes); GST (pGST4.5, glutathione column) (N, cleaved yes); made in house; host or cells: E. coli BL21(DE3)
The assay is described as follows: PAK4 kinase domain enzymatic assay (PK/LDH-coupled, Ki). The format is biochemical.
Conditions: not given
Molecule `CN(C)C[C@@H](NC(=O)N1Cc2c(NC(=O)C3COc4ccccc4O3)n[nH]c2C1(C)C)c1ccccc1` (stereo partly drawn) [Example 112, 3-(2,3-dihydrobenzo[b][1,4]dioxine-2-carboxamido)-N-((S)-2-(dimethylamino)-1-phenylethyl)-6,6-dimethylpyrrolo[3,4-c]pyrazole-5(1H,4H,6H)-carboxamide] yielded an inhibition at 1 µM of 66%.

Consider `CCc1ccc(C(=O)Nc2n[nH]c3c2CN(C(=O)NC2CC2c2ccccc2)C3(C)C)cc1` (stereo not drawn) [Example 114, 3-(4-ethylbenzamido)-6,6-dimethyl-N-[trans-(2-phenylcyclopropyl)]pyrrolo[3,4-c]pyrazole-5(1H,4H,6H)-carboxamide], for which the inhibition at 1 µM was 70%.

`Cc1cc(C(=O)Nc2n[nH]c3c2CN(C(=O)NC2CC2c2ccccc2)C3(C)C)n(C)n1` (stereo not drawn) [Example 113, 3-(1,3-dimethyl-1H-pyrazole-5-carboxamido)-6,6-dimethyl-N-[trans-(2-phenylcyclopropyl)]pyrrolo[3,4-c]pyrazole-5(1H,4H,6H)-carboxamide] came in with an inhibition at 1 µM of 65%.

The same assay, now with this note: PAK4 Kinase Domain.
Turning to `CN(C)C[C@H](Cc1ccccc1)OC(=O)N1Cc2c(NC(=O)c3ccc(F)cc3)n[nH]c2C1(C)C` [Example 76, (1S)-1-benzyl-2-(dimethylamino)ethyl 3-[(4-fluorobenzoyl)amino]-6,6-dimethyl-4,6-dihydropyrrolo[3,4-c]pyrazole-5(1H)-carboxylate], the pKi was 6.33.

`CCC(NC(=O)N1Cc2c(NC(=O)c3ccccc3)n[nH]c2C1(C)C)c1ccccc1` (centres unmarked) [Example 62, 3-(benzoylamino)-6,6-dimethyl-N-(1-phenylpropyl)-4,6-dihydropyrrolo[3,4-c]pyrazole-5(1H)-carboxamide] gave a pKi of 6.51.

The molecule `COc1cc(C(=O)Nc2n[nH]c3c2CN(C(=O)N[C@H](CN(C)C)c2ccccc2)C3(C)C)nc(OC)n1` [Example 106, (S)-3-(2,4-dimethoxypyrimidine-6-carboxamido)-N-(2-(dimethylamino)-1-phenylethyl)-6,6-dimethylpyrrolo[3,4-c]pyrazole-5(1H,4H,6H)-carboxamide] had a negative logarithm of the Ki (pKi) of 6.39.

Molecule `CC1(C)c2[nH]nc(NC(=O)c3ccc(F)cc3)c2CN1C(=O)N[C@H](CN)c1ccccc1` [Example 115, N-[(1S)-2-amino-1-phenylethyl]-3-[(4-fluorobenzoyl)amino]-6,6-dimethyl-4,6-dihydropyrrolo[3,4-c]pyrazole-5(1H)-carboxamide] had a negative-log Ki (pKi) of 7.68.

Consider `CN(C)[C@@H](COC(=O)N1Cc2c(NC(=O)c3ccc(F)cc3)n[nH]c2C1(C)C)c1ccccc1` [Example 41, (R)-2-(dimethylamino)-2-phenylethyl 3-[(4-fluorobenzoyl)amino]-6,6-dimethyl-4,6-dihydropyrrolo[3,4-c]pyrazole-5(1H)-carboxylate], for which the negative-log Ki (pKi) was 6.10.

Consider `COc1ccc(C(=O)Nc2n[nH]c3c2CN(C(=O)N[C@@H]2C[C@H]2c2ccccc2)C3(C)C)cc1OC` (relative stereo) [Example 109, 3-[(3,4-dimethoxybenzoyl)amino]-6,6-dimethyl-N-[trans-2-phenyl-cyclopropyl]-4,6-dihydropyrrolo[3,4-c]pyrazole-5(1H)-carboxamide], for which the pKi is 6.75.

`CCc1cc(C(=O)Nc2n[nH]c3c2CN(C(=O)N[C@H](CN(C)C)c2ccccc2)C3(C)C)no1` [Example 105, (S)-N-(2-(dimethylamino)-1-phenyl)-3-(5-ethylisoxazole-3-carboxamido)-6,6-dimethylpyrrolo [3,4-c]pyrazole-5(1H,4H,6H)-carboxamide]: the negative logarithm of the Ki (pKi) was 6.92.

The molecule `COc1ccc(CC(=O)Nc2n[nH]c3c2CN(C(=O)N[C@@H]2C[C@H]2c2ccccc2)C3(C)C)cc1` (relative stereo) [Example 101, 3-{[(4-methoxyphenyl)acetyl]amino}-6,6-dimethyl-N-[trans-2-phenylcyclopropyl]-4,6-dihydropyrrolo[3,4-c]pyrazole-5(1H)-carboxamide] showed a negative-log Ki (pKi) of 6.95.

Take `CN(C)C[C@@H](OC(=O)N1Cc2c(NC(=O)c3ccccc3F)n[nH]c2C1(C)C)C1CCCCC1` [Example 33, (1S)-1-cyclohexyl-2-(dimethylamino)ethyl 3-[(2-fluorobenzoyl)amino]-6,6-dimethyl-4,6-dihydropyrrolo[3,4-c]pyrazole-5(1H)-carboxylate]: the pKi was 6.66.

Molecule `CCC(=O)Nc1n[nH]c2c1CN(C(=O)O[C@H](CN(C)C)c1ccccc1)C2(C)C` [Example 118, (S)-2-(dimethylamino)-1-phenylethyl 6,6-dimethyl-3-propionamidopyrrolo[3,4-c]pyrazole-5(1H,4H,6H)-carboxylate] showed a negative logarithm of the Ki (pKi) of 6.65.

`CC(C)[C@@H](CN(C)C)OC(=O)N1Cc2c(NC(=O)c3ccccc3)n[nH]c2C1(C)C` [Example 74, (1S)-1-[(dimethylamino)methyl]-2-methylpropyl 3-(benzoylamino)-6,6-dimethyl-4,6-dihydropyrrolo[3,4-c]pyrazole-5(1H)-carboxylate] showed a pKi of 6.32.

The molecule `CN(C)CC(CC(=O)N1Cc2c(NC(=O)c3ccccc3)n[nH]c2C1(C)C)c1ccc(Cl)cc1` (centres unmarked) [Example 67, N-{5-[3-(4-chlorophenyl)-4-(dimethylamino)butanoyl]-6,6-dimethyl-1,4,5,6-tetrahydropyrrolo[3,4-c]pyrazol-3-yl}benzamide] gave a pKi of 6.71.

Molecule `COC[C@@H](NC(=O)N1Cc2c(NC(=O)c3ccccc3)n[nH]c2C1(C)C)c1ccccc1` [Example 120, (S)-3-benzamido-N-(2-methoxy-1-phenylethyl)-6,6-dimethylpyrrolo[3,4-c]pyrazole-5(1H,4H,6H)-carboxamide] showed a pKi of 6.33.

`CC1(C)c2[nH]nc(NC(=O)c3ccc(F)cc3)c2CN1C(=O)NC(CN1CCOCC1)c1ccccc1` (centres unmarked) [Example 102, 3-[(4-fluorobenzoyl)amino]-6,6-dimethyl-N-(2-morpholin-4-yl-1-phenylethyl)-4,6-dihydropyrrolo[3,4-c]pyrazole-5(1H)-carboxamide] gave a negative logarithm of the Ki (pKi) of 6.21.

With `COCC(=O)Nc1n[nH]c2c1CN(C(=O)O[C@H](CN(C)C)c1ccccc1)C2(C)C` [Example 14, (1S)-2-(dimethylamino)-1-phenylethyl 3-[(methoxyacetyl)amino]-6,6-dimethyl-4,6-dihydropyrrolo[3,4-c]pyrazole-5(1H)-carboxylate], the negative logarithm of the Ki (pKi) was 6.45.

In turn, `CC1(C)c2[nH]nc(NC(=O)c3ccccc3)c2CN1C(=O)N[C@H](CN)c1ccccc1` [Example 64, N-[(1S)-2-amino-1-phenylethyl]-3-(benzoylamino)-6,6-dimethyl-4,6-dihydropyrrolo[3,4-c]pyrazole-5(1H)-carboxamide] gave a pKi of 7.71.

Consider `CC1(C)c2[nH]nc(NC(=O)c3ccccc3)c2CN1C(=O)NC1CCN(Cc2ccccc2)C1` (centres unmarked) [Example 59, 3-(benzoylamino)-N-(1-benzylpyrrolidin-3-yl)-6,6-dimethyl-4,6-dihydropyrrolo[3,4-c]pyrazole-5(1H)-carboxamide], for which the negative-log Ki (pKi) was 6.35.

On to `Cc1ccc(Cl)c(C(=O)Nc2n[nH]c3c2CN(C(=O)N[C@H](CN(C)C)c2ccccc2)C3(C)C)c1F` [Example 110, (S)-3-(6-chloro-2-fluoro-3-methylbenzamido)-N-(2-(dimethylamino)-1-phenylethyl)-6,6-dimethylpyrrolo[3,4-c]pyrazole-5(1H,4H,6H)-carboxamide], for which the negative logarithm of the Ki (pKi) was 7.09.

Consider `CC1(C)c2[nH]nc(NC(=O)c3ccccc3)c2CN1C(=O)N[C@@H]1C[C@H]1c1ccccc1` (relative stereo) [Example 58, 3-(benzoylamino)-6,6-dimethyl-N-[trans-2-phenylcyclopropyl]-4,6-dihydropyrrolo[3,4-c]pyrazole-5(1H)-carboxamide], for which the negative logarithm of the Ki (pKi) is 7.02.

Turning to `CN(C)C[C@H](c1ccccc1)N(C)C(=O)N1Cc2c(NC(=O)c3ccccc3)n[nH]c2C1(C)C` [Example 103, 3-(benzoylamino)-N-[(1S)-2-(dimethylamino)-1-phenylethyl]-N,6,6-trimethyl-4,6-dihydropyrrolo[3,4-c]pyrazole-5(1H)-carboxamide], the negative-log Ki (pKi) was 6.29.

In turn, `CN(C)C[C@@H](OC(=O)N1Cc2c(NC(=O)C3CCOCC3)n[nH]c2C1(C)C)c1ccccc1` [Example 91, (S)-2-(dimethylamino)-1-phenylethyl 6,6-dimethyl-3-(tetrahydro-2H-pyran-4-carboxamido)pyrrolo[3,4-c]pyrazole-5(1H,4H,6H)-carboxylate] had a negative logarithm of the Ki (pKi) of 6.54.

`CC1(C)c2[nH]nc(NC(=O)c3ccccc3)c2CN1C(=O)NC(CN1CCCC1)c1ccccc1` (centres unmarked) [Example 60, 3-(benzoylamino)-6,6-dimethyl-N-(1-phenyl-2-pyrrolidin-1-ylethyl)-4,6-dihydropyrrolo[3,4-c]pyrazole-5(1H)-carboxamide] showed a pKi of 6.57.

On to `CC[C@@H](NC(=O)N1Cc2c(NC(=O)c3ccccc3)n[nH]c2C1(C)C)c1ccccc1` [Example 63, 3-(benzoylamino)-6,6-dimethyl-N-[(1R)-1-phenylpropyl]-4,6-dihydropyrrolo[3,4-c]pyrazole-5(1H)-carboxamide], for which the negative logarithm of the Ki (pKi) is 6.75.

The molecule `CN(C)[C@H](COC(=O)N1Cc2c(NC(=O)c3ccc(F)cc3)n[nH]c2C1(C)C)c1ccccc1` [Example 42, (S)-2-(dimethylamino)-2-phenylethyl 3-[(4-fluorobenzoyl)amino]-6,6-dimethyl-4,6-dihydropyrrolo[3,4-c]pyrazole-5(1H)-carboxylate] had a negative logarithm of the Ki (pKi) of 6.02.

`C[C@@H](CN(C)C)OC(=O)N1Cc2c(NC(=O)c3ccc(F)cc3F)n[nH]c2C1(C)C` [Example 37, (1S)-2-(dimethylamino)-1-methylethyl 3-[(2,4-difluorobenzoyl)amino]-6,6-dimethyl-4,6-dihydropyrrolo[3,4-c]pyrazole-5(1H)-carboxylate] had a negative logarithm of the Ki (pKi) of 6.25.

As to `CCC(C(=O)Nc1n[nH]c2c1CN(C(=O)N[C@@H]1C[C@H]1c1ccccc1)C2(C)C)c1ccccc1` (relative stereo) [Example 107, 6,6-dimethyl-3-[(2-phenylbutanoyl)amino]-N-[trans-2-phenylcyclopropyl]-4,6-dihydropyrrolo[3,4-c]pyrazole-5(1H)-carboxamide], the pKi was 6.59.

Broadly, the inhibition is the share of the control response that was lost under treatment. Usually pKi stands for the Ki on a negative log10 scale, so that one unit is a factor of ten. Low values mean a large Ki, high ones a small Ki.
